# Source: US4046914A, “Therapeutically active substituted saturated and mono-and polyunsaturated alkyl-glycerylethers” (Astra Nutrition AB, priority 1975, dated 1977)
# Tested on: He La cells
# Assay: growth of He La cells (cell counts in Burker chamber)
# Assay type: cell-based
# Procedure: Hank's solution containing 0,5 % hydrolysate of lactalbumin, 7 % calf serum and with 7 ml 0,15 % sodium bicarbonate and 20-40.000 I.U. of penicillin and streptomycin added per 100 ml was used for the cultivation of the He La cells. pH was 7,4 at the beginning of the experiment. The medium was changed 2 times per week. A suspension of He La cells was obtained by treatment with versene. The glycerol ethers were dissolved in the medium in concentrations of 1, 5, 25 and 100 μg/ml. 1,5 ml of cell suspension, containing 10^6 cells/ml, was added to 18,5 ml medium. The growth was registered by counting the cells in a Burker chamber.
smiles,measurement,setting,value
"CCCCCCCCCCCCCCC(COCC(O)CO)OC (centres unmarked) [AII, 1-O-(2-methoxyhexadecyl)-glycerol]",cytostatic action,25 μg/ml,acted clearly cytostatically
same,time to completely suppressed growth,25 μg/ml,about 15 days
same,effect on He La cell growth,"25 μg/ml, 14 days at 37° C",growth inhibiting and later on a cell killing effect
same,Cell counts,"Table II, 5 μg/ml, 1 day, controls 54",201
same,Cell counts,"Table II, 5 μg/ml, 3 days, controls 122",137
same,Cell counts,"Table II, 5 μg/ml, 6 days, controls 186",225
same,Cell counts,"Table II, 25 μg/ml, 1 day, controls 54",206
same,Cell counts,"Table II, 25 μg/ml, 3 days, controls 122",91
same,Cell counts,"Table II, 25 μg/ml, 6 days, controls 186",148
same,Cell counts,"Table II, 100 μg/ml, 1 day, controls 54",157
same,Cell counts,"Table II, 100 μg/ml, 3 days, controls 122",All cells dead
same,Cell counts,"Table II, 100 μg/ml, 6 days, controls 186",All cells dead
same,Cell counts,"Table III, 5 μg/ml, 1 day, controls 78",63
same,Cell counts,"Table III, 5 μg/ml, 2 days, controls 98",113
same,Cell counts,"Table III, 5 μg/ml, 6 days, controls 228",205
same,Cell counts,"Table III, 5 μg/ml, 10 days, controls 359",407
same,Cell counts,"Table III, 25 μg/ml, 1 day, controls 78",64
same,Cell counts,"Table III, 25 μg/ml, 2 days, controls 98",154
same,Cell counts,"Table III, 25 μg/ml, 6 days, controls 228",160
same,Cell counts,"Table III, 25 μg/ml, 10 days, controls 359",272
same,Cell counts,"Table IV, 1 μg/ml, 2 days, controls 138",121
same,Cell counts,"Table IV, 1 μg/ml, 5 days, controls 172",271
same,Cell counts,"Table IV, 1 μg/ml, 8 days, controls 520",598
same,Cell counts,"Table IV, 1 μg/ml, 11 days, controls 757",546
same,Cell counts,"Table IV, 1 μg/ml, 14 days, controls 649",557
same,Cell counts,"Table IV, 5 μg/ml, 2 days, controls 138",113
same,Cell counts,"Table IV, 5 μg/ml, 5 days, controls 172",200
same,Cell counts,"Table IV, 5 μg/ml, 8 days, controls 520",488
same,Cell counts,"Table IV, 5 μg/ml, 11 days, controls 757",546
same,Cell counts,"Table IV, 5 μg/ml, 14 days, controls 649",637
same,Cell counts,"Table IV, 25 μg/ml, 2 days, controls 138",107
same,Cell counts,"Table IV, 25 μg/ml, 5 days, controls 172",107
same,Cell counts,"Table IV, 25 μg/ml, 8 days, controls 520",241
same,Cell counts,"Table IV, 25 μg/ml, 11 days, controls 757",112
same,Cell counts,"Table IV, 25 μg/ml, 14 days, controls 649",0
same,Cell counts,"Table V, 1 μg/ml, 3 days, controls 210",293
same,Cell counts,"Table V, 1 μg/ml, 6 days after transfer, controls 176",169
same,Cell counts,"Table V, 1 μg/ml, 8 days, controls 510",498
same,Cell counts,"Table V, 5 μg/ml, 3 days, controls 210",246
same,Cell counts,"Table V, 5 μg/ml, 6 days after transfer, controls 176",136
same,Cell counts,"Table V, 5 μg/ml, 8 days, controls 510",517
